Results on ten molecules are retold here after US10517849B2, “LSD1 inhibitors and medical uses thereof” (Constellation Pharmaceuticals, Inc., priority 2016, dated 2019).

Assay [1] relates to LY-96 mRNA induction in MV4-11 cells. Kind of assay: LSD1 LY96 Quantigene Assay. Type of assay: cell-based. Particulars: Homo sapiens, 16 h, Quantigene 2.0. The method, then:
MV4-11 cells were cultured at a density of 4×10^4 cells per well in a 96-well plates and treated with various doses inhibitor starting from 10 μM up to 0.0005 μM for 16 h. The LY-96 mRNA induction was quantified using the Quantigene 2.0 system (Affymetrix). The cells were lysed with Lysis Mixture containing Proteinase K. The working reagent for capturing the RNA was prepared according to the steps detailed in “Capturing Target RNA from Cultured Cell or Blood Lysates” in the Quantigene handbook. The subsequent hybridization with LY-96 probe, signal amplification and detection steps were performed as described in the manual. The chemiluminescence was read using Envision (PerkinElmer) and Abase (IDBS software) was used to plot the dose response curves and calculate IC50.

The next assay concerns Kasumi-1. Kind of assay: Kasumi-1 GI50 Assay. Particulars: Homo sapiens, 288 h; Kasumi-1 cells, 12 days, Cell Titer-Glo viability. Type of assay: cell-based. On the procedure:
Cells were plated at 5,000 cells per well in 96 well tissue culture dishes containing tool compounds arrayed in a 10-point dose curve, ranging from […] with 4-fold dilutions, and split every fourth day at a fixed ratio to re-establish 5,000 cells/well density for DMSO-treated controls. Cell treatments were carried out for a total of 12 days. At each 4-day split, the viable cell numbers were determined using the Cell Titer-Glo luminescent cell viability assay (Promega, Madison, Wis. USA) using an EnVision® Multilabel Plate Reader (Perkin Elmer, Waltham, Mass. USA). GraphPad Prism 6 (GraphPad Software, Inc., La Jolla, Calif. USA) was used for curve fitting and determination of GI50 values.
A general note: Cellular ATP, detected with luciferase, serves as a proxy for viable cell number.

Where a name gives a salt, the structure may show the parent alone. Some results are limits rather than exact numbers.

What is called EC50 is the concentration needed to bring the measured effect to its halfway point. Low values mean an effect from little substance, high ones a need for much substance. In general, GI50 refers to the concentration at which growth is held to half of that of the control. On to `CC/C(=C\c1ccccc1)[C@@H]1C[C@H]1NC1CC2(CCN(C[C@@H](O)CO)CC2)C1` [Compound 19, (R)-3-(2-(((1R,2S)-2-((E)-1-phenylbut-1-en-2-yl)cyclopropyl)amino)-7-azaspiro[3.5]nonan-7-yl)propane-1,2-diol dihydrochloride], for which, in assay [1], the EC50 was less than 100 nM. Moreover, the GI50 with Kasumi-1 was less than 100 nM.
`CC/C(=C\c1ccccc1)[C@@H]1C[C@H]1NC1CC2(C1)CN(CC(=O)NC(C)C)C2` [Compound 27, N-isopropyl-2-(6-(((1R,2S)-2-((E)-1-phenylbut-1-en-2-yl)cyclopropyl)amino)-2-azaspiro[3.3]heptan-2-yl)acetamide bis(2,2,2-trifluoroacetate)] came in with a half-maximal effective concentration (EC50) in assay [1] of less than 100 nM. Also, the GI50 with Kasumi-1 is less than 100 nM.
`CC/C(=C\c1ccccc1)[C@@H]1C[C@H]1NC1CC2(CCN(CCC(N)=O)CC2)C1` [Compound 24, 3-(2-(((1R,2S)-2-((E)-1-phenylbut-1-en-2-yl)cyclopropyl)amino)-7-azaspiro[3.5]nonan-7-yl)propanamide dihydrochloride]: the EC50 in assay [1] was less than 100 nM. In addition, the GI50 in the assay with Kasumi-1 is less than 100 nM.
Turning to `CC/C(=C\c1ccccc1)[C@@H]1C[C@H]1NC1CC2(CCN(CC(C)(C)O)CC2)C1` [Compound 18, 2-methyl-1-(2-(((1R,2S)-2-((E)-1-phenylbut-1-en-2-yl)cyclopropyl)amino)-7-azaspiro[3.5]nonan-7-yl)propan-2-ol dihydrochloride], the EC50 in assay [1] is less than 100 nM. For the same molecule, the GI50 with Kasumi-1 is less than 100 nM.
On to `CC/C(=C\c1ccccc1)[C@@H]1C[C@H]1NC1CC2(C1)CN(CCNS(=O)(=O)CCOC)C2` [Compound 9, 2-methoxy-N-(2-(6-(((1R,2S)-2-((E)-1-phenylbut-1-en-2-yl)cyclopropyl)amino)-2-azaspiro[3.3]heptan-2-yl)ethyl)ethanesulfonamide bis(2,2,2-trifluoroacetate)], for which, in assay [1], the EC50 was less than 100 nM. Moreover, in the assay with Kasumi-1, the GI50 was less than 100 nM.
`CC/C(=C\c1ccccc1)[C@@H]1C[C@H]1NC1CC2(C1)CN(CCNC(C)=O)C2` [Compound 5, N-(2-(6-(((1R,2S)-2-((E)-1-phenylbut-1-en-2-yl)cyclopropyl)amino)-2-azaspiro[3.3]heptan-2-yl)ethyl)acetamide bis(2,2,2-trifluoroacetate)] showed an EC50 in assay [1] of less than 100 nM. In addition, the GI50 with Kasumi-1 was less than 100 nM.
`CC/C(=C\c1ccccc1)[C@@H]1C[C@H]1NC1CC2(C1)CN(CCNS(=O)(=O)CC)C2` [Compound 7, N-(2-(6-(((1R,2S)-2-((E)-1-phenylbut-1-en-2-yl)cyclopropyl)amino)-2-azaspiro[3.3]heptan-2-yl)ethyl)ethanesulfonamide bis(2,2,2-trifluoroacetate)] displayed an EC50 in assay [1] of less than 100 nM. Moreover, in the assay with Kasumi-1, the GI50 is less than 100 nM.
Regarding `CC/C(=C\c1ccccc1)[C@@H]1C[C@H]1NC1CC2(C1)CN(CC(=O)NCCS(C)(=O)=O)C2` [Compound 26, N-(2-(methylsulfonyl)ethyl)-2-(6-(((1R,2S)-2-((E)-1-phenylbut-1-en-2-yl)cyclopropyl)amino)-2-azaspiro[3.3]heptan-2-yl)acetamide bis(2,2,2-trifluoroacetate)], the EC50 in assay [1] was less than 100 nM. Moreover, the GI50 in the assay on Kasumi-1 is less than 100 nM.
Regarding `CC/C(=C\c1ccccc1)[C@@H]1C[C@H]1NC1CC2(C1)CN(C(C)(C)C(N)=O)C2` [Compound 14, 2-methyl-2-(6-(((1R,2S)-2-((E)-1-phenylbut-1-en-2-yl)cyclopropyl)amino)-2-azaspiro[3.3]heptan-2-yl)propanamide bis(2,2,2-trifluoroacetate)], the EC50 in assay [1] was less than 100 nM. Also, the GI50 in the assay on Kasumi-1 is less than 100 nM.
For `CC/C(=C\c1ccccc1)[C@@H]1C[C@H]1NC1CC2(C1)CN(CCNS(=O)(=O)C(C)C)C2` [Compound 8, N-(2-(6-(((1R,2S)-2-((E)-1-phenylbut-1-en-2-yl)cyclopropyl)amino)-2-azaspiro[3.3]heptan-2-yl)ethyl)propane-2-sulfonamide bis(2,2,2-trifluoroacetate)], the EC50 in assay [1] was less than 100 nM. For the same molecule, in the assay on Kasumi-1, the GI50 was less than 100 nM.
